According to ChEMBL document CHEMBL1134425, “alpha-Amino-beta-sulphone hydroxamates as potent MMP-13 inhibitors that spare MMP-1” (Bioorg Med Chem Lett, 2001):

Columns and labels:
Collagenase 3 = Collagenase 3 (Homo sapiens, UniProt P45452); assay: Inhibition of Matrix metalloprotease-13
Interstitial collagenase = biological target: T1, Interstitial collagenase (Homo sapiens, UniProt P03956); assay: Inhibition of Matrix metalloprotease-1
T1 sequence (P03956 whole entry): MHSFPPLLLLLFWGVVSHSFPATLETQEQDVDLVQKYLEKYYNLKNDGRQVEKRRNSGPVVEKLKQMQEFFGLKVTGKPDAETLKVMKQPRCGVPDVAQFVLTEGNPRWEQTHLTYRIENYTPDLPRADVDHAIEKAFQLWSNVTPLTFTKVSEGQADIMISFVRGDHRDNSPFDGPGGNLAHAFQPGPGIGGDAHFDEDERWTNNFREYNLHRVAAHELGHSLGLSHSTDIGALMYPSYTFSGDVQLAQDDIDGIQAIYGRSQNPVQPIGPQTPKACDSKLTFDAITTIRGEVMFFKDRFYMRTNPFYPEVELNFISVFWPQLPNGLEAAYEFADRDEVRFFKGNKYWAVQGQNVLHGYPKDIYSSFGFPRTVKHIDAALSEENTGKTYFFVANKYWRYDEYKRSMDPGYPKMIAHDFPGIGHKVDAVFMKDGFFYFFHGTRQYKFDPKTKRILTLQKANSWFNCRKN

[1] = biological target: Matrix metalloproteinase (1 and 13) (Homo sapiens) (UniProt P45452+P03956); assay: Selectivity for Matrix metalloprotease-1 over Matrix metalloprotease-13; assay type: protein assay
[2] = Maximum plasma concentration dosed orally in rats; assay type: ADME, organism-based; set-up: route oral; conditions: rat, po
[3] = Maximum plasma concentration dosed orally in rats after 6 hours; assay type: ADME, organism-based; set-up: route oral; conditions: rat, po

Row | Compound | IC50 (Collagenase 3) [nM] | IC50 (Interstitial collagenase) [nM] | Selectivity [1] | Cmax [2] [ng/mL] | Cmax [3] [ng/mL]
1 | CC(=O)NC(CS(=O)(=O)c1ccc(Oc2ccccc2)cc1)C(=O)NO (centres undefined) | 1.1 | 770 | 700 |  | 
2 | O=C(NC(CS(=O)(=O)c1ccc(Oc2ccccc2)cc1)C(=O)NO)OCc1ccccc1 (centres undefined) | 1.1 | 1400 | 1300 |  | 
3 | CN(Cc1ccccc1)[C@H](CS(=O)(=O)c1ccc(Oc2ccccc2)cc1)C(=O)NO |  |  | 2400 |  | 
4 | COc1ccc(S(=O)(=O)CC(NC(=O)OC(C)(C)C)C(=O)NO)cc1 (centres undefined) | 15 | 1500 | 100 |  | 
5 | CC(=O)N[C@H](CS(=O)(=O)c1ccc(Sc2ccccc2)cc1)C(=O)NO | 2.9 | 10000 | 3400 |  | 
6 | COc1ccc(S(=O)(=O)CC(NC(=O)CNC(=O)OCc2ccccc2)C(=O)NO)cc1 (centres undefined) |  |  | > 40 |  | 
7 | COc1ccc(S(=O)(=O)CC(NC(C)=O)C(=O)NO)cc1 (centres undefined) |  |  | 20 |  | 
8 | CC(C)(C)OC(=O)N[C@H](CS(=O)(=O)c1ccc(Oc2ccccc2)cc1)C(=O)NO | 0.3 | 500 | 1600 | < 200 | 
9 | CC(=O)N(C)[C@H](CS(=O)(=O)c1ccc(Oc2ccccc2)cc1)C(=O)NO | 0.2 | 90 | 450 | 2450 | 60
10 | CN[C@H](CS(=O)(=O)c1ccc(Oc2ccccc2)cc1)C(=O)NO | 0.4 | 440 | 1100 | 6660 | 49
11 | CC(=O)NC(CS(=O)(=O)c1ccc(Sc2ccccc2)cc1)C(=O)NO (centres undefined) |  |  | > 1700 |  | 
12 | NC(CS(=O)(=O)c1ccc(Sc2ccccc2)cc1)C(=O)NO (centres undefined) |  |  | 420 |  | 
13 | Cc1ccc(S(=O)(=O)NC(CS(=O)(=O)c2ccc(Sc3ccccc3)cc2)C(=O)NO)cc1 (centres undefined) |  |  | 1500 |  | 
14 | COc1ccc(S(=O)(=O)CC(N)C(=O)NO)cc1 (centres undefined) |  |  | 17 |  | 
15 | CC(C)(C)OC(=O)N[C@H](CS(=O)(=O)c1ccc(Sc2ccccc2)cc1)C(=O)NO | 4 | > 10000 | > 2500 |  | 
16 | O=C(N[C@H](CS(=O)(=O)c1ccc(Oc2ccccc2)cc1)C(=O)NO)c1ccncc1 | 0.8 | 900 | 1100 | < 200 | 
17 | CN(C(=O)OC(C)(C)C)[C@H](CS(=O)(=O)c1ccc(Oc2ccccc2)cc1)C(=O)NO |  |  | 5300 |  | 
18 | O=C(CNC(=O)OCc1ccccc1)NC(CS(=O)(=O)c1ccc(Sc2ccccc2)cc1)C(=O)NO (centres undefined) |  |  | > 12000 |  | 
19 | O=C(N[C@H](CS(=O)(=O)c1ccc(Sc2ccccc2)cc1)C(=O)NO)OCc1ccccc1 | 0.4 | 8000 | 20000 |  | 
20 | O=C(NC(CS(=O)(=O)c1ccc(Sc2ccccc2)cc1)C(=O)NO)OCc1ccccc1 (centres undefined) |  |  | > 2700 |  | 
21 | Cc1ccc(S(=O)(=O)NC(CS(=O)(=O)c2ccc(Oc3ccccc3)cc2)C(=O)NO)cc1 (centres undefined) |  |  | 670 |  | 
22 | CN(C(=O)Cc1ccncc1)[C@H](CS(=O)(=O)c1ccc(Oc2ccccc2)cc1)C(=O)NO | 2 |  | 130 | 710 | 
23 | COc1cccc(OC)c1C(=O)N[C@H](CS(=O)(=O)c1ccc(Oc2ccccc2)cc1)C(=O)NO | 0.4 | 350 | 870 | < 200 | 
